Publication PMC4918903 (Journal of natural products, 2008)
In brackets after ≈: the same amount, converted by molar mass. Entries after “also recorded” stand apart in the source; their conditions may differ. Blank lines part the entries; values can stand above or below the compound they belong to.

Legend:
[1] = tested on: Leishmania donovani promastigotes; test: Antileishmanial activity, Almar Blue assay; format: cell-based; conditions: for IC50: read-out: L. donovani IC50
Cryptococcus neoformans = test: In vitro antifungal activity; format: cell-based; conditions: for IC50: Cryptococcus neoformans, read-out: C. neoformans IC50
Candida albicans = test: In vitro antifungal activity; format: cell-based
P. bergei-infected mice = conditions: single intraperitoneal and oral administration; cited from earlier work
P. falciparum (D6 clone) = test: In vitro antimalarial activity, chloroquine-sensitive D6 clone; format: cell-based; conditions: Plasmodium falciparum, D6, read-out: P. falciparum (D6 clone) IC50
P. falciparum (W2 clone) = test: In vitro antimalarial activity, chloroquine-resistant W2 clone; format: cell-based; conditions: Plasmodium falciparum, W2, read-out: P. falciparum (W2 clone) IC50
[2] = tested on: P. berghei (sensitive strain); test: In vivo antimalarial activity in rodent malaria model; conditions: oral; for cure: mice without parasitemia up to day 28 post-infection; for toxicity in vivo (in words): 30 mg/kg/day x 3 doses
Stability in solvents = format: physicochemical
[3] = tested on: Vero cell line (monkey kidney fibroblast cells); test: Cytotoxicity to mammalian Vero cells; format: cell-based; conditions: highest tested concentration 4700 ng/mL
[4] = tested on: Mycobacterium intracellulare; test: In vitro antibacterial activity; format: cell-based
HSV-II = conditions: cited from earlier work
LoVo = conditions: versus 8-hydroxy parent; cited from earlier work
KB carcinoma cell line = conditions: replacement of hydroxyl with methoxy at 8-position; cited from earlier work
[5] = tested on: methicillin-resistant S. aureus (MRSA); test: In vitro antibacterial activity; format: cell-based

- IC50 [1]: 2.6 µg/mL (≈ 7.64 µM)
- IC90 ([1]; read-out: L. donovani IC90): 6.9 µg/mL (≈ 20.3 µM)
SMILES: N=C(N)c1ccc(OCCCCCOc2ccc(C(=N)N)cc2)cc1 [pentamidine, reference compound]

SMILES: Oc1cccc2c1[nH]c1c(C3=C[C@@]4(O)CC/C=C\CCCCN5CC[C@@H]3[C@]3(C[C@@H]6/C=C\CCCCN6[C@H]34)C5)nccc12 [Compound 2, 8-hydroxymanzamine A]
- IC50 (Cryptococcus neoformans): 3 µg/mL (≈ 5.31 µM)
- MIC (Candida albicans; Candida albicans, read-out: C. albicans MIC): 20 µg/mL (≈ 35.4 µM)
- prolonged survival of infected mice (P. bergei-infected mice): more than 10 days
- IC50 (P. falciparum (D6 clone)): 0.006 µg/mL (≈ 0.0106 µM)
- IC50 (P. falciparum (W2 clone)): 0.008 µg/mL (≈ 0.0142 µM)
- IC50 [1]: 6.2 µg/mL (≈ 11 µM)
- cure ([2]; 10 mg/kg x 3 days): 0/4
- cure ([2]; 30 mg/kg x 3 days): 0/4

SMILES: CC(=O)Oc1cccc2c1[nH]c1c(C3=C[C@@]4(O)CC/C=C\CCCCN5CC[C@@H]3[C@]3(C[C@@H]6/C=C\CCCCN6[C@H]34)C5)nccc12 [Compound 3, 8-acetoxymanzamine A]
- hydrolysis in DMSO and IPA (in words) (Stability in solvents; DMSO and IPA): negligible
- formation of hydroxyl moiety 2 in MeCN and DMSO (in words) (Stability in solvents; MeCN and DMSO): no detectable trace
- hydrolysis to 2 in MeOH (Stability in solvents; MeOH, 15 h, LC-MS): 98%
- cure ([2]; 10 mg/kg x 3 days): 0/4
- cure ([2]; 30 mg/kg x 3 days): 0/3
- toxicity in vivo (in words) [2]: higher toxicity; also recorded: toxic
- toxicity to Vero cell line (in words) [3]: exhibited toxicity

SMILES: CCN(CC)CCCC(C)Nc1ccnc2cc(Cl)ccc12 (stereo not drawn) [chloroquine, reference compound]
- IC50 (P. falciparum (D6 clone)): 0.014 µg/mL (≈ 0.0438 µM)
- IC50 (P. falciparum (W2 clone)): 0.155 µg/mL (≈ 0.485 µM)
- % suppression in parasitemia (% activity) day 7 ([2]; 50 mg/kg x 3 days, vehicle 0.1 N HCl, day 7 post-infection): 100%
- % suppression in parasitemia (% activity) day 10 ([2]; 50 mg/kg x 3 days, vehicle 0.1 N HCl, day 10 post-infection): 100%
- % suppression in parasitemia (% activity) day 14 ([2]; 50 mg/kg x 3 days, vehicle 0.1 N HCl, day 14 post-infection): 100%
- cure ([2]; 50 mg/kg x 3 days): 3/4

SMILES: Oc1cccc2c1[nH]c1c(C3=C[C@@]4(O)CC/C=C\CCCCN5CC[C@@H]3[C@]3(CC6/C=C\CCCCN6[C@H]34)C5)nccc12 (stereo partly drawn) [Compound 2, 8-hydroxymanzamine A]
- toxicity in vivo (in words) [2]: not toxic

SMILES: O[C@]12C=C(c3nccc4c3[nH]c3ccccc34)[C@@H]3CCN(CCCC/C=C\CC1)C[C@@]31C[C@@H]3/C=C\CCCCN3[C@H]12 [Compound 1, manzamine A]
- IC50 (Cryptococcus neoformans): 3 µg/mL (≈ 5.47 µM)
- IC50 (Candida albicans; Candida albicans, read-out: C. albicans IC50): 2 µg/mL (≈ 3.64 µM)
- prolonged survival of infected mice (P. bergei-infected mice): more than 10 days
- IC50 (P. falciparum (D6 clone)): 0.0042 µg/mL (≈ 0.00765 µM)
- IC50 [1]: 0.9 µg/mL (≈ 1.64 µM)
- cure ([2]; 10 mg/kg x 3 days): 1/4
- toxicity in vivo (in words) [2]: shows toxicity
- IC50 ([4]; Mycobacterium intracellulare, read-out: M. intracellulare IC50): 0.35 µg/mL (≈ 0.638 µM)

SMILES: COc1cccc2c1[nH]c1c(C3=C[C@@]4(O)CC/C=C\CCCCN5CC[C@@H]3[C@]3(C[C@@H]6/C=C\CCCCN6[C@H]34)C5)nccc12 [Compound 5, 8-methoxymanzamine A]
- stability in different solvents (in words) (Stability in solvents; different solvents, two months, LC-MS): no expected hydrolysis to compound 2 was observed
- activity against HSV-II (in words) (HSV-II): no activity
- cytotoxicity against LoVo (in words) (LoVo): cytotoxity increased
- toxicity in KB carcinoma cell line versus 8-hydroxy parent (in words) (KB carcinoma cell line): reduced the toxicity
- toxicity to Vero cell line (in words) [3]: exhibited toxicity

SMILES: CC(=O)Oc1cccc2c1[nH]c1c(C3=C[C@@]4(OC(C)=O)CC/C=C\CCCCN5CC[C@@H]3[C@]3(C[C@@H]6/C=C\CCCCN6[C@H]34)C5)nccc12 [Compound 4, 8,12-diacetoxymanzamine A]
- activity against MRSA (in words) [5]: moderate activity
- activity against C. neoformans (in words) (Cryptococcus neoformans): inactive
- stability in CDCl3 and CD2Cl2 (in words) (Stability in solvents; CDCl3 and CD2Cl2, 24 h, 1H NMR): decomposition
- stability in benzene (in words) (Stability in solvents; benzene, a few days of 1H NMR acquisition): no changes were observed
- stability in several tested solvents (in words) (Stability in solvents; several tested solvents with the exception of benzene): unstable and easily degraded
- activity against C. albicans (in words) (Candida albicans): inactive
- toxicity to Vero cell line (in words) [3]: did not show cytotoxicity
- activity against M. intracellulare (in words) [4]: moderate activity
